# According to US6582351B1, “Imidazopyridinone derivatives and their use as phosphodiesterase inhibitors” (Fujisawa Pharmaceutical Co., Ltd., priority 1999, dated 2003):
row,SMILES,melting point
1,"COc1ccc(Cn2c(=O)n([C@H]3CC[C@H](O)CC3)c3ncc(C(=O)O)cc32)cc1Cl [Example 19(25), 6-Carboxy-1-(3-chloro-4-methoxybenzyl)-3-(trans-4-hydroxycyclohexyl)-2,3-dihydro-1H-imidazo[4,5-b]pyridin-2-one]",262 to 262.5 °C
2,"COc1ccc(Cn2c(=O)n([C@H]3CC[C@H](O)CC3)c3ccc(C(F)(F)F)cc32)cc1Cl [Example 2(24), 3-(3-Chloro-4-methoxybenzyl)-1-(trans-4-hydroxycyclohexyl)-5-trifluoromethyl-2,3-dihydro-1H-benzimidazol-2-one]",167 to 168 °C
3,"COc1ccc(Cn2c(=O)n([C@H](C)CO)c3ccc(C(F)(F)F)cc32)cc1Cl [Example 4(4), 3-(3-Chloro-4-methoxybenzyl)-1-((R)-2-hydroxy-1-methylethyl)-5-trifluoromethyl-2,3-dihydro-1H-benzimidazol-2-one]",108 to 109 °C
4,"COc1ccc(Cn2c(=O)n(CCO)c3ccc(C(F)(F)F)cc32)cc1Cl [Example 4(7), 3-(3-Chloro-4-methoxybenzyl)-1-(2-hydroxyethyl)-5-trifluoromethyl-2,3-dihydro-1H-benzimidazol-2-one]",106 to 107 °C
5,"COc1ccc(Cn2c(=O)n([C@H]3CC[C@@H](O)CC3)c3ncc(C#N)cc32)cc1Cl [Example 24, 1-(3-chloro-4-methoxybenzyl)-6-cyano-3-(cis-4-hydroxycyclohexyl)-2,3-dihydro-1H-imidazo[4,5-b]pyridin-2-one]",197 to 198 °C
6,"COc1ccc(Cn2c(=O)n([C@H]3CC[C@H](OC(C)=O)CC3)c3ncc(C(F)(F)F)cc32)cc1Cl [Example 2(15), 3-(trans-4-Acetoxycyclohexyl)-1-(3-chloro-4-methoxybenzyl)-6-trifluoromethyl-2,3-dihydro-1H-imidazo[4,5-b]pyridin-2-one]",165 to 166 °C
7,"COc1ccc(Cn2c(=O)n([C@H]3CC[C@H](O)CC3)c3ncc(C(F)(F)F)cc32)cc1Cl [Example 19(2), 1-(3-Chloro-4-methoxybenzyl)-3-(trans-4-hydroxycyclohexyl)-6-trifluoromethyl-2,3-dihydro-1H-imidazo[4,5-b]pyridin-2-one]",121 to 123 °C
8,"COc1ccc(Cn2c(=O)n([C@H]3CC[C@H](NC=O)CC3)c3ccc(C(F)(F)F)cc32)cc1OC [Example 2(8), 3-(3,4-Dimethoxybenzyl)-1-(trans-4-formamidocyclohexyl)-5-trifluoromethyl-2,3-dihydro-1H-benzimidazol-2-one]",158 to 160.5 °C
9,"COc1ccc(Cn2c(=O)n([C@H]3CCN(C(=O)OC(C)(C)C)C3)c3ccc(C(F)(F)F)cc32)cc1OC [Example 2(18), 1-((S)-1-tert-Butoxycarbonylpyrrolidin-3-yl)-3-(3,4-dimethoxybenzyl)-5-trifluoromethyl-2,3-dihydro-1H-benzimidazol-2-one]",122 to 122.5 °C
10,"COc1ccc(Cn2c(=O)n([C@H]3CC[C@H](O)CC3)c3ncc(C#N)cc32)cc1C [Example 2(101), 6-Cyano-3-(trans-4-hydroxycyclohexyl)-1-(4-methoxy-3-methylbenzyl)-2,3-dihydro-1H-imidazo[4,5-b]pyridin-2-one]",168 to 169 °C
11,"COc1ccc(Cn2c(=O)n(C3CCOCC3)c3ccc(C(F)(F)F)cc32)cc1Cl [Example 2(34), 3-(3-Chloro-4-methoxybenzyl)-1-(tetrahydro-4H-pyran-4-yl)-5-trifluoromethyl-2,3-dihydro-1H-benzimidazol-2-one]",175 to 176 °C
12,"COc1ccc(Cn2c(=O)n([C@H]3CCN(C(=O)OC(C)(C)C)C3)c3ccc(C(F)(F)F)cc32)cc1Cl [Example 2(19), 1-((S)-1-tert-Butoxycarbonylpyrrolidin-3-yl)-3-(3-chloro-4-methoxybenzyl)-5-trifluoromethyl-2,3-dihydro-1H-benzimidazol-2-one]",157 to 157.5 °C
13,"COc1ccc(Cn2c(=O)n(C(C)(C)CO)c3ncc(C(F)(F)F)cc32)cc1Cl [Example 3, 1-(3-chloro-4-methoxybenzyl)-3-(1,1-dimethyl-2-hydroxyethyl)-6-trifluoromethyl-2,3-dihydro-1H-imidazo[4,5-b]pyridin-2-one]",195 to 197 °C
14,"COc1ccc(Cn2c(=O)n([C@H]3CC[C@H](N)CC3)c3ccc(C(F)(F)F)cc32)cc1Cl [Example 8(4), 1-(trans-4-Aminocyclohexyl)-3-(3-chloro-4-methoxybenzyl)-5-trifluoromethyl-2,3-dihydro-1H-benzimidazol-2-one]",167 to 168.5 °C
15,"COc1ccc(Cn2c(=O)n([C@H]3CC[C@H](O)CC3)c3ccc(C(=O)c4ccccc4)cc32)cc1Cl [Example 4(6), 5-Benzoyl-3-(3-chloro-4-methoxybenzyl)-1-(trans-4-hydroxycyclohexyl)-2,3-dihydro-1H-benzimidazol-2-one]",160.5 to 162 °C
16,"O=c1n(Cc2ccc(Cl)c(Cl)c2)c2cc(C(F)(F)F)cnc2n1[C@H]1CC[C@H](O)CC1 [Example 19(3), 1-(3,4-Dichlorobenzyl)-3-(trans-4-hydroxycyclohexyl)-6-trifluoromethyl-2,3-dihydro-1H-imidazo[4,5-b]pyridin-2-one]",170 to 171.5 °C
17,"COc1ccc(Cn2c(=O)n(-c3ccc4[nH]ccc4c3)c3ncc(C#N)cc32)cc1Cl [Example 2(105), 1-(3-Chloro-4-methoxybenzyl)-3-(1H-indol-5-yl)-6-cyano-2,3-dihydro-1H-imidazo[4,5-b]pyridin-2-one]",281 to 282 °C
18,"COc1ccc(Cn2c(=O)n(-c3ccc4[nH]cnc4c3)c3ccc(C(F)(F)F)cc32)cc1OC [Example 2(20), 1-(1H-Benzimidazol-5-yl)-3-(3,4-dimethoxybenzyl)-5-trifluoromethyl-2,3-dihydro-1H-benzimidazol-2-one]",174 to 175 °C
19,"COc1ccc(Cn2c(=O)n([C@H]3CC[C@H](NC(N)=O)CC3)c3ccc(C(F)(F)F)cc32)cc1Cl [Example 14(2), 1-(trans-4-Ureidocyclohexyl)-3-(3-chloro-4-methoxybenzyl)-5-trifluoromethyl-2,3-dihydro-1H-benzimidazol-2-one]",164 to 165.5 °C
20,"COc1ccc(Cn2c(=O)n([C@H]3CC[C@H](O)CC3)c3ncc(C(=O)NCc4cccnc4)cc32)cc1Cl [Example 21(2), 1-(3-Chloro-4-methoxybenzyl)-6-(3-picolylcarbamoyl)-3-(trans-4-hydroxycyclohexyl)-2,3-dihydro-1H-imidazo[4,5-b]pyridin-2-one]",134 to 135 °C
21,"COc1ccc(Cn2c(=O)n([C@H]3CC[C@H](O)CC3)c3ccc(C(F)(F)F)cc32)cc1OC [Example 1, 3-(3,4-dimethoxybenzyl)-1-(trans-4-hydroxycyclohexyl)-5-trifluoromethyl-2,3-dihydro-1H-benzimidazol-2-one]",108 to 110 °C
22,"CCCCn1c(=O)n(Cc2ccc(OC)c(Cl)c2)c2cc(C(F)(F)F)ccc21 [Example 2(36), 1-Butyl-3-(3-chloro-4-methoxybenzyl)-5-trifluoromethyl-2,3-dihydro-1H-benzimidazol-2-one]",122 to 124 °C

# Results, then the compound that gave them:
row,melting point,SMILES
1,166 to 167 °C,"COc1ccc(Cn2c(=O)n([C@H]3CC[C@H](O)CC3)c3ccc(Cl)cc32)cc1OC [Example 2(9), 5-Chloro-3-(3,4-dimethoxybenzyl)-1-(trans-4-hydroxycyclohexyl)-2,3-dihydro-1H-benzimidazol-2-one]"
2,176 to 177 °C,"COc1ccc2c(c1)n(Cc1ccc(OC)c(OC)c1)c(=O)n2[C@H]1CC[C@H](O)CC1 [Example 2(11), 3-(3,4-Dimethoxybenzyl)-1-(trans-4-hydroxycyclohexyl)-5-methoxy-2,3-dihydro-1H-benzimidazol-2-one]"
3,115 to 116 °C,"COc1c(Cl)cc(Cn2c(=O)n([C@H]3CC[C@H](O)CC3)c3ccc([N+](=O)[O-])cc32)cc1Cl [Example 2(26), 3-(3,5-Dichloro-4-methoxybenzyl)-1-(trans-4-hydroxycyclohexyl)-5-nitro-2,3-dihydro-1H-benzimidazol-2-one]"
4,148 to 149.5 °C,"COC(=O)c1ccc2c(c1)n(Cc1ccc(OC)c(OC)c1)c(=O)n2[C@H]1CC[C@H](O)CC1 [Example 2(10), 3-(3,4-Dimethoxybenzyl)-1-(trans-4-hydroxycyclohexyl)-5-methoxycarbonyl-2,3-dihydro-1H-benzimidazol-2-one]"
5,122 to 124 °C,"COc1ccc(Cn2c(=O)n([C@H]3CC[C@H](O)CC3)c3ccc([N+](=O)[O-])cc32)cc1C#N [Example 2(97), 3-(3-Cyano-4-methoxybenzyl)-1-(trans-4-hydroxycyclohexyl)-5-nitro-2,3-dihydro-1H-benzimidazol-2-one]"
6,209 to 210 °C,"COc1ccc(Cn2c(=O)n([C@H]3CC[C@H](O)CC3)c3ccc(C(C)=O)cc32)cc1Cl [Example 2(22), 5-Acetyl-3-(3-chloro-4-methoxybenzyl)-1-(trans-4-hydroxycyclohexyl)-2,3-dihydro-1H-benzimidazol-2-one]"
7,170 to 171.5 °C,"COc1cc(Cn2c(=O)n(C3CCCC3)c3ccc([N+](=O)[O-])cc32)ccc1Cl [Example 2(2), 3-(4-Chloro-3-methoxybenzyl)-1-cyclopentyl-5-nitro-2,3-dihydro-1H-benzimidazol-2-one]"
8,133 to 134 °C,"COc1ccc(Cn2c(=O)n([C@H]3CC[C@H](O)CC3)c3ncc(C#N)cc32)cc1C#N [Example 2(102), 6-Cyano-1-(3-cyano-4-methoxybenzyl)-3-(trans-4-hydroxycyclohexyl)-2,3-dihydro-1H-imidazo[4,5-b]pyridin-2-one]"
9,265 to 265.5 °C,"COc1ccc(Cn2c(=O)n([C@H]3CC[C@H](O)CC3)c3ccc(S(C)(=O)=O)cc32)cc1Cl [Example 4(3), 3-(3-Chloro-4-methoxybenzyl)-1-(trans-4-hydroxycyclohexyl)-5-methylsulfonyl-2,3-dihydro-1H-benzimidazol-2-one]"
10,178 to 179 °C,"COc1ccc(Cn2c(=O)n([C@H]3CC[C@H](O)CC3)c3ccc(C(F)(F)F)cc32)cc1F [Example 2(30), 3-(3-Fluoro-4-methoxybenzyl)-1-(trans-4-hydroxycyclohexyl)-5-trifluoromethyl-2,3-dihydro-1H-benzimidazol-2-one]"
